Reference: US20100062052A1, “PEPTIDE-BASED COMPOUNDS AS NEW INHIBITORS OF METALLOECTOPEPTIDASES, COMPOSITIONS COMPRISING SAID COMPOUNDS AND THEIR PHARMACEUTICAL AND COSMETIC USES” (GREENPHARMA, priority 2007, published 2010)
Residues, ends and D or L forms follow the SMILES beside them. *: point of attachment. Palmitoyl = CCCCCCCCCCCCCCCC(=O)*

Assay: Solubility in aqueous Tris-buffer
Type: physicochemical
Settings: diluted from ethanol stock, read-out: solubility limit in aqueous Tris-buffer conditions

solubility: ≤ 70 µM
Structure (SMILES): CCCCCCCCCCCCCCCC(=O)N[C@@H](CCC(N)=O)C(=O)N[C@@H](CCCNC(=N)N)C(=O)N[C@@H](Cc1ccccc1)C(=O)N[C@@H](CO)C(=O)N[C@@H](CCCNC(=N)N)C(N)=O [Pal-QRFSR-NH2, palmitoyl-QRFSR-NH2] (Palmitoyl-QRFSR-NH2)
